Laboratory results published in patent US10004701B2, “Methods and compositions for treating infection” (UNIVERSITY OF ROCHESTER, priority 2012, dated 2018).
Structures can show the parent of a compound that is named as a salt. Where two headings read alike, the source gives them in different places.

Experiments:
Test in all cases: AK assay 384-well format, Prestwick library screening
E. faecium = assay type: cell-based, Enterococcus faecium; details: Enterococcus faecium, 3 h
[1] = tested on: S. aureus strain USA300-0114; assay type: cell-based, Staphylococcus aureus; details: Staphylococcus aureus, USA300, 3 h
K. pneumoniae = assay type: cell-based, Klebsiella pneumoniae; details: Klebsiella pneumoniae, 3 h
[2] = tested on: A. baumannii strain 98-37-09; assay type: cell-based, Acinetobacter baumannii; details: Acinetobacter baumannii, 983709, 3 h
P. aeruginosa = assay type: cell-based, Pseudomonas aeruginosa; details: Pseudomonas aeruginosa, 3 h
E. cloacae = assay type: cell-based, Enterobacter cloacae; details: Enterobacter cloacae, 3 h
E. coli = assay type: cell-based, Escherichia coli; details: Escherichia coli, 3 h
[3] = planktonic E. faecium, 50 μM final drug concentration, 384-well, cutoff for positive-scoring molecules 3-fold increase, read-out: AK-based Prestwick Library Screening Results: E. faecium (increase in extracellular AK activity)
[4] = planktonic S. aureus, 50 μM final drug concentration, 384-well, cutoff for positive-scoring molecules 3-fold increase, read-out: AK-based Prestwick Library Screening Results: S. aureus (increase in extracellular AK activity)
[5] = planktonic K. pneumoniae, 50 μM final drug concentration, 384-well, cutoff for positive-scoring molecules 3-fold increase, read-out: AK-based Prestwick Library Screening Results: K. pneumoniae (increase in extracellular AK activity)
[6] = planktonic A. baumannii, 50 μM final drug concentration, 384-well, cutoff for positive-scoring molecules 3-fold increase, read-out: AK-based Prestwick Library Screening Results: A. baumannii (increase in extracellular AK activity)
[7] = planktonic P. aeruginosa, 50 μM final drug concentration, 384-well, cutoff for positive-scoring molecules 3-fold increase, read-out: AK-based Prestwick Library Screening Results: P. aeruginosa (increase in extracellular AK activity)
[8] = planktonic E. cloacae, 50 μM final drug concentration, 384-well, cutoff for positive-scoring molecules 3-fold increase, read-out: AK-based Prestwick Library Screening Results: E. cloacae (increase in extracellular AK activity)
[9] = planktonic E. coli, 50 μM final drug concentration, 384-well, cutoff for positive-scoring molecules 3-fold increase, read-out: AK-based Prestwick Library Screening Results: E. coli (increase in extracellular AK activity)
[10] = planktonic E. faecium, 50 μM final drug concentration, […], read-out: AK-based Prestwick Library Screening Results, E. faecium (increase in extracellular AK activity)
[11] = planktonic S. aureus, 50 μM final drug concentration, […], read-out: AK-based Prestwick Library Screening Results, S. aureus (increase in extracellular AK activity)
[12] = planktonic K. pneumoniae, 50 μM final drug concentration, […], read-out: AK-based Prestwick Library Screening Results, K. pneumoniae (increase in extracellular AK activity)
[13] = planktonic A. baumannii, 50 μM final drug concentration, […], read-out: AK-based Prestwick Library Screening Results, A. baumannii (increase in extracellular AK activity)
[14] = planktonic P. aeruginosa, 50 μM final drug concentration, […], read-out: AK-based Prestwick Library Screening Results, P. aeruginosa (increase in extracellular AK activity)
[15] = planktonic E. cloacae, 50 μM final drug concentration, […], read-out: AK-based Prestwick Library Screening Results, E. cloacae (increase in extracellular AK activity)
[16] = planktonic E. coli, 50 μM final drug concentration, […], read-out: AK-based Prestwick Library Screening Results, E. coli (increase in extracellular AK activity)

O=C1c2c(O)ccc(O)c2C(=O)c2c(NCCNCCO)ccc(NCCNCCO)c21 [Mitoxantrone dihydrochloride]
fold induction at 50 µM (E. faecium; 50 μM final drug concentration, planktonic, cutoff for positive 3-fold increase, read-out: AK-based Prestwick Library Screening Results, E. faecium (fold increase in extracellular AK activity)): 0.8
fold induction at 50 µM ([1]; 50 μM final drug concentration, planktonic, cutoff for positive 3-fold increase, read-out: AK-based Prestwick Library Screening Results, S. aureus (fold increase in extracellular AK activity)): 0.7
fold induction at 50 µM (K. pneumoniae; 50 μM final drug concentration, planktonic, cutoff for positive 3-fold increase, read-out: AK-based Prestwick Library Screening Results, K. pneumoniae (fold increase in extracellular AK activity)): 1
fold induction at 50 µM ([2]; 50 μM final drug concentration, planktonic, cutoff for positive 3-fold increase, read-out: AK-based Prestwick Library Screening Results, A. baumannii (fold increase in extracellular AK activity)): 1.5
fold induction at 50 µM (P. aeruginosa; 50 μM final drug concentration, planktonic, cutoff for positive 3-fold increase, read-out: AK-based Prestwick Library Screening Results, P. aeruginosa (fold increase in extracellular AK activity)): 0.9
fold induction at 50 µM (E. cloacae; 50 μM final drug concentration, planktonic, cutoff for positive 3-fold increase, read-out: AK-based Prestwick Library Screening Results, E. cloacae (fold increase in extracellular AK activity)): 1.2
fold induction at 50 µM (E. coli; 50 μM final drug concentration, planktonic, […], read-out: AK-based Prestwick Library Screening Results, E. coli (fold increase in extracellular AK activity)): 1.5

COc1cc([C@@H]2c3cc4c(cc3[C@H](O)[C@H]3COC(=O)[C@H]23)OCO4)cc(OC)c1OC [Podophyllotoxin]
fold induction at 50 µM (E. faecium; 50 μM final drug concentration, […], read-out: AK-based Prestwick Library Screening Results, E. faecium (fold increase in extracellular AK activity)): 0.9
fold induction at 50 µM ([1]; 50 μM final drug concentration, […], read-out: AK-based Prestwick Library Screening Results, S. aureus (fold increase in extracellular AK activity)): 1
fold induction at 50 µM (K. pneumoniae; 50 μM final drug concentration, […], read-out: AK-based Prestwick Library Screening Results, K. pneumoniae (fold increase in extracellular AK activity)): 1.2
fold induction at 50 µM ([2]; 50 μM final drug concentration, […], read-out: AK-based Prestwick Library Screening Results, A. baumannii (fold increase in extracellular AK activity)): 1.2
fold induction at 50 µM (P. aeruginosa; 50 μM final drug concentration, […], read-out: AK-based Prestwick Library Screening Results, P. aeruginosa (fold increase in extracellular AK activity)): 1.1
fold induction at 50 µM (E. cloacae; 50 μM final drug concentration, […], read-out: AK-based Prestwick Library Screening Results, E. cloacae (fold increase in extracellular AK activity)): 1.3
fold induction at 50 µM (E. coli; 50 μM final drug concentration, […], read-out: AK-based Prestwick Library Screening Results, E. coli (fold increase in extracellular AK activity)): 1.2

CN(C)CCCO[C@@H]1[C@H]2OC(C)(C)O[C@H]2O[C@@H]1[C@H](O)CO [Amiprilose hydrochloride]
fold induction at 50 µM (E. faecium; 50 μM final drug concentration, cutoff for positive-scoring molecules 3-fold increase, read-out: AK-based Prestwick Library Screening Results, E. faecium (fold increase in extracellular AK activity)): 1.1
fold induction at 50 µM ([1]; 50 μM final drug concentration, cutoff for positive-scoring molecules 3-fold increase, read-out: AK-based Prestwick Library Screening Results, S. aureus (fold increase in extracellular AK activity)): 1.3
fold induction at 50 µM (K. pneumoniae; 50 μM final drug concentration, cutoff for positive-scoring molecules 3-fold increase, read-out: AK-based Prestwick Library Screening Results, K. pneumoniae (fold increase in extracellular AK activity)): 0.9
fold induction at 50 µM ([2]; 50 μM final drug concentration, cutoff for positive-scoring molecules 3-fold increase, read-out: AK-based Prestwick Library Screening Results, A. baumannii (fold increase in extracellular AK activity)): 1.2
fold induction at 50 µM (P. aeruginosa; 50 μM final drug concentration, cutoff for positive-scoring molecules 3-fold increase, read-out: AK-based Prestwick Library Screening Results, P. aeruginosa (fold increase in extracellular AK activity)): 1.1
fold induction at 50 µM (E. cloacae; 50 μM final drug concentration, cutoff for positive-scoring molecules 3-fold increase, read-out: AK-based Prestwick Library Screening Results, E. cloacae (fold increase in extracellular AK activity)): 1.5
fold induction at 50 µM (E. coli; 50 μM final drug concentration, cutoff for positive-scoring molecules 3-fold increase, read-out: AK-based Prestwick Library Screening Results, E. coli (fold increase in extracellular AK activity)): 1.3

C[N+]12CCC(CC1)C(OC(=O)C(O)(c1ccccc1)c1ccccc1)C2 (stereo not drawn) [Clidinium bromide]
fold induction at 50 µM (E. faecium; read-out: AK-based Prestwick Library Screening Results, E. faecium (fold increase in extracellular AK activity)): 0.9
fold induction at 50 µM ([1]; read-out: AK-based Prestwick Library Screening Results, S. aureus (fold increase in extracellular AK activity)): 0.9
fold induction at 50 µM (K. pneumoniae; read-out: AK-based Prestwick Library Screening Results, K. pneumoniae (fold increase in extracellular AK activity)): 0.8
fold induction at 50 µM ([2]; read-out: AK-based Prestwick Library Screening Results, A. baumannii (fold increase in extracellular AK activity)): 1.1
fold induction at 50 µM (P. aeruginosa; read-out: AK-based Prestwick Library Screening Results, P. aeruginosa (fold increase in extracellular AK activity)): 1.1
fold induction at 50 µM (E. cloacae; read-out: AK-based Prestwick Library Screening Results, E. cloacae (fold increase in extracellular AK activity)): 1.3
fold induction at 50 µM (E. coli; read-out: AK-based Prestwick Library Screening Results, E. coli (fold increase in extracellular AK activity)): 1

CN1C(C(=O)Nc2ccccn2)=C(O)c2ccccc2S1(=O)=O [Piroxicam]
fold induction at 50 µM (E. faecium; [3]): 1.1
fold induction at 50 µM [1, 4]: 1.4
fold induction at 50 µM (K. pneumoniae; [5]): 1
fold induction at 50 µM [2, 6]: 1
fold induction at 50 µM (P. aeruginosa; [7]): 1.2
fold induction at 50 µM (E. cloacae; [8]): 1.4
fold induction at 50 µM (E. coli; [9]): 1.2

O=c1c(O)c(-c2ccc(O)c(O)c2)oc2cc(O)cc(O)c12 [Quercetine dihydrate]
fold induction at 50 µM (E. faecium; [10]): 0.8
fold induction at 50 µM [1, 11]: 0.1
fold induction at 50 µM (K. pneumoniae; [12]): 0.6
fold induction at 50 µM [2, 13]: 0.4
fold induction at 50 µM (P. aeruginosa; [14]): 0.6
fold induction at 50 µM (E. cloacae; [15]): 0.9
fold induction at 50 µM (E. coli; [16]): 0.7

O=C(O)c1ccccc1Nc1cccc(C(F)(F)F)c1 [Flufenamic acid]
fold induction at 50 µM (E. faecium; planktonic E. faecium, 50 μM final drug concentration, 384-well, […], read-out: AK-based Prestwick Library Screening Results: E. faecium (increase in extracellular AK activity)): 1
fold induction at 50 µM ([1]; planktonic S. aureus, 50 μM final drug concentration, 384-well, […], read-out: AK-based Prestwick Library Screening Results: S. aureus (increase in extracellular AK activity)): 0.5
fold induction at 50 µM (K. pneumoniae; planktonic K. pneumoniae, 50 μM final drug concentration, 384-well, […], read-out: AK-based Prestwick Library Screening Results: K. pneumoniae (increase in extracellular AK activity)): 1
fold induction at 50 µM ([2]; planktonic A. baumannii, 50 μM final drug concentration, 384-well, […], read-out: AK-based Prestwick Library Screening Results: A. baumannii (increase in extracellular AK activity)): 1.3
fold induction at 50 µM (P. aeruginosa; planktonic P. aeruginosa, 50 μM final drug concentration, 384-well, […], read-out: AK-based Prestwick Library Screening Results: P. aeruginosa (increase in extracellular AK activity)): 1.1
fold induction at 50 µM (E. cloacae; planktonic E. cloacae, 50 μM final drug concentration, 384-well, […], read-out: AK-based Prestwick Library Screening Results: E. cloacae (increase in extracellular AK activity)): 1.8
fold induction at 50 µM (E. coli; planktonic E. coli, 50 μM final drug concentration, 384-well, […], read-out: AK-based Prestwick Library Screening Results: E. coli (increase in extracellular AK activity)): 1

CCCC(C)(COC(N)=O)COC(=O)NC(C)C (stereo not drawn) [Carisoprodol]
fold induction at 50 µM (E. faecium; [10]): 0.9
fold induction at 50 µM [1, 11]: 0.7
fold induction at 50 µM (K. pneumoniae; [12]): 0.6
fold induction at 50 µM [2, 13]: 0.8
fold induction at 50 µM (P. aeruginosa; [14]): 0.9
fold induction at 50 µM (E. cloacae; [15]): 0.8
fold induction at 50 µM (E. coli; [16]): 0.9

CN1CCN(C2=Nc3ccccc3Oc3ccc(Cl)cc32)CC1 [Loxapine succinate]
fold induction at 50 µM (E. faecium; [3]): 0.9
fold induction at 50 µM [1, 4]: 1.1
fold induction at 50 µM (K. pneumoniae; [5]): 1
fold induction at 50 µM [2, 6]: 1
fold induction at 50 µM (P. aeruginosa; [7]): 0.9
fold induction at 50 µM (E. cloacae; [8]): 1.3
fold induction at 50 µM (E. coli; [9]): 1
